From US9491941B2, “(Hetero) arylacrylamides for the control of ectoparasites” (Novartis Tiergesundheit AG, priority 2012, dated 2016)

System: Lepeophtheirus Salmonis at Copeodid Stage (sea lice copepodids)
Assay: Activity in vitro against Lepeophtheirus salmonis at copepodid stage
Details: copepodids 1 hour contact in sea water, then 48 h untreated sea water; no movement over 80 seconds; serial dilution (MED)
Description: 3—Activity In Vitro Against Lepeophtheirus Salmonis at Copeodid Stage
Sea lice copepodids were used to seed a 96-well plate containing the test substances to be evaluated for antiparasitic activity. Each compound was tested by serial dilution in order to determine its minimal effective dose (MED). Copepodids were left in contact with the test compound diluted in sea water for 1 hour. They were then incubated in untreated sea water for 48 h. Efficacy against sea lice was then confirmed if no copepodid moved over a period of 80 seconds.

O=C(/C=C/c1ccc(C(=O)NC2CC2)c2ccccc12)NC(c1cc(Cl)cc(Cl)c1)C(F)(F)F (stereo not drawn) [Example 1.62]
efficacy (EC80): 50 ppb

CCN1OCC(NC(=O)c2ccc(/C=C/C(=O)NC(c3cccc(C(F)(F)F)c3)C(F)(F)F)c3ccccc23)C1=O (stereo not drawn) [Example 1.34]
efficacy (EC80): 50 ppb

O=C(/C=C/c1ccc(C(=O)NC2CC2)c2ccccc12)NC(c1ccc(Cl)c(Cl)c1)C(F)(F)F (stereo not drawn) [Example 1.63]
efficacy (EC80): 50 ppb

O=C(/C=C/c1ccc(C(=O)NC2CC(F)(F)C2)c2ccccc12)NC(c1cccc(C(F)(F)F)c1)C(F)(F)F (stereo not drawn) [Example 1.35]
efficacy (EC80): 50 ppb

N#CC1(NC(=O)c2ccc(/C=C/C(=O)NC(c3cccc(C(F)(F)F)c3)C(F)(F)F)c3ccccc23)CC1 (stereo not drawn) [Example 1.26]
efficacy (EC80): 0.5 ppb

CC(C)NC(=O)c1ccc(/C=C/C(=O)NC(c2cccc(C(F)(F)F)c2)C(F)(F)F)c2ccccc12 (stereo not drawn) [Example 1.27]
efficacy (EC80): 50 ppb

O=C(/C=C/c1ccc(C(=O)NC2CC(F)C2)c2ccccc12)NC(c1cccc(C(F)(F)F)c1)C(F)(F)F (stereo not drawn) [Example 1.36]
efficacy (EC80): 50 ppb

O=C(/C=C/c1ccc(C(=O)NCC2CC2)c2ccccc12)NC(c1cccc(C(F)(F)F)c1)C(F)(F)F (stereo not drawn) [Example 1.1, N-(cyclopropylmethyl)-4-[(1E)-2-({2,2,2-trifluoro-1-[3-(trifluoromethyl)phenyl]ethyl}carbamoyl)eth-1-en-1-yl]naphthalene-1-carboxamide]
efficacy (EC80): 50 ppb

O=C(/C=C/c1ccc(C(=O)NC2CC2)c2cccnc12)NC(c1cccc(C(F)(F)F)c1)C(F)(F)F (stereo not drawn) [Example 3.2]
efficacy (EC80): 50 ppb

O=C(/C=C/c1ccc(C(=O)NC2CC2)c2ccccc12)NC(c1cccc(C(F)(F)F)c1)C(F)(F)F (stereo not drawn) [Example 1.5]
efficacy (EC80): 5 ppb

N#CC1(NC(=O)c2ccc(/C=C/C(=O)NC(c3cccc(C(F)(F)F)c3)C(F)(F)F)c3ccccc23)CCC1 (stereo not drawn) [Example 1.44]
efficacy (EC80): 50 ppb

O=C(/C=C/c1ccc(C(=O)NCc2ccco2)c2ccccc12)NC(c1cccc(C(F)(F)F)c1)C(F)(F)F (stereo not drawn) [Example 1.3]
efficacy (EC80): 50 ppb

O=C(/C=C/c1ccc(C(=O)NC2CC2)c2ccccc12)NC(c1cccc(OC(F)(F)F)c1)C(F)(F)F (stereo not drawn) [Example 1.61]
efficacy (EC80): 0.5 ppb

O=C(/C=C/c1ccc(C(=O)NC2CC2)c2ccccc12)NC(c1cccc(Br)c1)C(F)(F)F (stereo not drawn) [Example 1.56]
efficacy (EC80): 50 ppb

O=C(C=Cc1ccc(C(=O)NC2CC2F)c2ccccc12)NC(c1cccc(C(F)(F)F)c1)C(F)(F)F (stereo not drawn) [Example 1.40]
efficacy (EC80): 50 ppb

O=C(/C=C/c1ccc(C(=O)NC2CC2)c2ccccc12)NC(c1cccc(F)c1)C(F)(F)F (stereo not drawn) [Example 1.65]
efficacy (EC80): 5 ppb

CC1(NC(=O)c2ccc(/C=C/C(=O)NC(c3cccc(C(F)(F)F)c3)C(F)(F)F)c3ccccc23)CCC1 (stereo not drawn) [Example 1.41]
efficacy (EC80): 5 ppb

Cc1cccc(C(NC(=O)/C=C/c2ccc(C(=O)NC3CC3)c3ccccc23)C(F)(F)F)c1 (stereo not drawn) [Example 1.58]
efficacy (EC80): 50 ppb

O=C(/C=C/c1ccc(C(=O)NC2CC2)c2ccccc12)NC(c1cccc2ccccc12)C(F)(F)F (stereo not drawn) [Example 1.82]
efficacy (EC80): 50 ppb

O=C(/C=C/c1ccc(C(=O)NC2CON(CC(F)(F)F)C2=O)c2ccccc12)NC(c1cccc(C(F)(F)F)c1)C(F)(F)F (stereo not drawn) [Example 1.46]
efficacy (EC80): 50 ppb

O=C(/C=C/c1ccc(C(=O)NC2CC2)c2ccccc12)NC(c1ccc(Cl)c(C(F)(F)F)c1)C(F)(F)F (stereo not drawn) [Example 1.66]
efficacy (EC80): 50 ppb

O=C(/C=C/c1ccc(C(=O)NC2CSC2)c2ccccc12)NC(c1cccc(C(F)(F)F)c1)C(F)(F)F (stereo not drawn) [Example 1.10]
efficacy (EC80): 50 ppb

O=C(/C=C/c1ccc(C(=O)NC2CC2)c2ccccc12)NC(c1cc(Cl)c(Cl)c(Cl)c1)C(F)(F)F (stereo not drawn) [Example 1.64]
efficacy (EC80): 5 ppb

Cc1cc(/C=C/C(=O)NC(c2cccc(C(F)(F)F)c2)C(F)(F)F)sc1C(=O)NC1CC1 (stereo not drawn) [Example 2.4]
efficacy (EC80): 50 ppb

O=C(/C=C/c1ccc(C(=O)NCC2CSC2)c2ccccc12)NC(c1cccc(C(F)(F)F)c1)C(F)(F)F (stereo not drawn) [Example 1.43]
efficacy (EC80): 5 ppb

CCNC(=O)c1ccc(/C=C/C(=O)NC(c2cccc(C(F)(F)F)c2)C(F)(F)F)c2ccccc12 (stereo not drawn) [Example 1.13]
efficacy (EC80): 50 ppb

O=C(/C=C/c1ccc(C(=O)NC2CC2)c2ccccc12)NC(c1cccc(C(F)(F)F)c1)C(F)(F)F (stereo not drawn) [Example 4.1]
efficacy (EC80): 50 ppb
